Experimental data published in patent US5770691A, “Discriminatory substrates for MMP hydrolysis” (Regents of the University of Minnesota, priority 1995, dated 1998).
Where a SMILES comes first, the peptide text is derived from it. [ ]: non-standard residue; d: D form. The star is where a group is joined. Dnp = O=[N+]([O-])c1ccc(*)c([N+](=O)[O-])c1; Mca = COc1ccc2c(CC(=O)*)cc(=O)oc2c1; Nva = CCC[C@H](N)C(=O)O

Experiments:
MMP-3 [1] = biological target: T1, MMP-3 (Homo sapiens, UniProt P08254); assay: Fluorometric hydrolysis of synthetic Mca/Lys(Dnp) substrates by MMP-3; assay type: biochemical; set-up: made in house; host or cells: native secreted protein purified from culture medium of human rheumatoid synovial cells; details: for kcat /Km: pH 7.5
Source text: (§1) All MMPs were purified in zymogen form. ProMMP-1 (Suzuki et al., Biochem., 29, 10261 (1990)), proMMP-2 (Okada et al., Eur. J. Biochem., 194, 721 (1990)), and proMMP-3 (Ito et al., Arch. Biochem. Biophys., 267, 211 (1988)) were purified from the culture medium of human rheumatoid synovial cells stimulated with rabbit macrophage-conditioned medium. ProMMP-9 was purified from the culture medium of HT-1080 cells as described in Morodomi et al., Biochem. J., 285, 603 (1992). ProMMP-2 and proMMP-9 were activated by reacting with 1 mM 4-aminophenylmercuric acetate at 37° C. for 45 minutes and 32 hours, respectively. ProMMP-1 was activated by reacting with 1 mM 4-aminophenylmercuric acetate and an equimolar amount of MMP-3 at 37° C. for 6 hours. After activation, MMP-3 was completely removed from MMP-1 by affinity chromatography using an anti-MMP-3 IgG Affi-Gel 10 column. The resin, Affi-Gel 10 (Biorad, Emoryville, Calif.), was coupled to anti-MMP-3 IgG (Okada et al., Annals of Rheumat. Dis., 48, 645 (1989)) per the manufacturer's protocol. Pro-MMP-3 was activated by reacting with 5 μg/mL chymotrypsin at 37° C. for 2 hours. Chymotrypsin was inactivated with 2 mM diisopropylfluorophosphate. The amounts of active MMP-1, MMP-2, and MMP-3 were determined by titration with tissue inhibitor of metalloproteinase-1(TIMP1) over a concentration range of 0.1-3 μg/mL, while the amount of active MMP-9 was determined by titration with TIMP-2 (0.1-3 μg/mL). TIMP-1 was isolated from the medium of HT-1080 cells as described in Morodomi et al., Biochem J., 285, 603 (1992).
(§2) Substrates were prepared as 10 mM stock solutions in dimethylsulfoxide (DMSO). Fluorescent assays were performed at λex =325 nm and λem =393 nm, which should encounter no interference from Trp residues, using a Hitachi fluorescence spectrophotometer F-3010. Initial total hydrolysis assays were run at a substrate concentration of […] to avoid filtering effects. The change in fluorescence at this concentration was 110 based on total hydrolysis of 1 μM substrate. A typical assay was carried out by incubating 100 μL of various concentrations of a substrate with 10 μL of an enzyme solution (2-20 nM) in 50 mM Tris-HCl, pH 7.5, 0.15M NaCl, 10 mM CaCl2, 0.05% Brij 35, 0.02% NaN3. The reaction was stopped by addition of 900 μl of 3% (v/v) glacial acetic acid. MMP-3 activity at pH 6.0 was measured in 50 mM sodium acetate buffer, pH 6.0, instead of Tris-HCl buffer. The amount of substrate hydrolysis was calculated based on the fluorescence values of the Mca-Arg-Pro-Lys-Pro-Gln standard solution after substraction of the reaction blank value (stopping solution added before the enzyme). Individual kinetic parameters (kcat and KM) were determined over a substrate concentration range of 2.5-75 μM and calculated by double reciprocal plots.
Target sequence in this assay (P08254 100-477): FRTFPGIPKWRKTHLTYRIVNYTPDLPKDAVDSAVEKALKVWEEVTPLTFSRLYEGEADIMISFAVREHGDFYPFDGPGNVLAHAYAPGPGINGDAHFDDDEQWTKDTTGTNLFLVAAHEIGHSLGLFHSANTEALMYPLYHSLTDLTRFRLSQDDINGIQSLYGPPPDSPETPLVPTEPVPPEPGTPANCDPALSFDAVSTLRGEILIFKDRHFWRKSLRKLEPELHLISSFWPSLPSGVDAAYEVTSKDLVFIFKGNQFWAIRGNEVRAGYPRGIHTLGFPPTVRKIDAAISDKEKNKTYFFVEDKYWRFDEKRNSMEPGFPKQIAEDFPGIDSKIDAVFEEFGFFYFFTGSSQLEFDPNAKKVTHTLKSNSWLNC

MMP-3 [2] = biological target: T1, MMP-3; assay: as above; assay type: biochemical; set-up: made in house; host or cells: native secreted protein purified from culture medium of human rheumatoid synovial cells; details: Edman degradation analysis after 36-72 hour treatment of substrate with MMP
Target sequence in this assay (P08254 100-477): as above

MMP-9 [3] = biological target: T2, MMP-9 (Homo sapiens, UniProt P14780); assay: Fluorometric hydrolysis of synthetic Mca/Lys(Dnp) substrates by MMP-9; assay type: biochemical; set-up: made in house; host or cells: native secreted protein purified from culture medium of HT-1080 cells
Source text: as §1, §2

MMP-9 [4] = biological target: T2, MMP-9; assay: as above; assay type: biochemical; set-up: made in house; host or cells: native secreted protein purified from culture medium of HT-1080 cells; details: Edman degradation analysis after 36-72 hour treatment of substrate with MMP
MMP-2 [5] = biological target: T3, MMP-2 (Homo sapiens, UniProt P08253); assay: Fluorometric hydrolysis of synthetic Mca/Lys(Dnp) substrates by MMP-2; assay type: biochemical; set-up: made in house; host or cells: native secreted protein purified from culture medium of human rheumatoid synovial cells; details: for site of hydrolysis by MMP-2: Edman degradation analysis after 36-72 hour treatment of substrate with MMP
T3 sequence (P08253 110-660): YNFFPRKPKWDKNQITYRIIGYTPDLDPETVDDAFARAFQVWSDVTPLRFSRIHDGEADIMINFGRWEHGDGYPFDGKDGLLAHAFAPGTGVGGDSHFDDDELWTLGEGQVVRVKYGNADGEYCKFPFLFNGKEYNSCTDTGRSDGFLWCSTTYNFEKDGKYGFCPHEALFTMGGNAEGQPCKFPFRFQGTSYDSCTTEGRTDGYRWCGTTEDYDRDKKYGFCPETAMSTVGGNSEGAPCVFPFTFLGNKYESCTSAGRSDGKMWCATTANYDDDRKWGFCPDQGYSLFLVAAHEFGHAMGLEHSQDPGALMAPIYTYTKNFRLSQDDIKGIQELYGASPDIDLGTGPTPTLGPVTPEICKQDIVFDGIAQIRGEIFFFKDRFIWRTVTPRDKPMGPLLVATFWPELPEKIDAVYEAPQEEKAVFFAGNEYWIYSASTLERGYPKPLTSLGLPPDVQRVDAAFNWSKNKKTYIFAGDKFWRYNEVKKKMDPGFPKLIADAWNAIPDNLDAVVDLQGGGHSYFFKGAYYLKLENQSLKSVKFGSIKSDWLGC
Source text: as §1, §2

MMP-1 [6] = biological target: T4, MMP-1 (Homo sapiens, UniProt P03956); assay: Fluorometric hydrolysis of synthetic Mca/Lys(Dnp) substrates by MMP-1; assay type: biochemical; set-up: made in house; host or cells: native secreted protein purified from culture medium of human rheumatoid synovial cells; details: for site of hydrolysis by MMP-1: Edman degradation analysis after 36-72 hour treatment of substrate with MMP
T4 sequence (P03956 100-469): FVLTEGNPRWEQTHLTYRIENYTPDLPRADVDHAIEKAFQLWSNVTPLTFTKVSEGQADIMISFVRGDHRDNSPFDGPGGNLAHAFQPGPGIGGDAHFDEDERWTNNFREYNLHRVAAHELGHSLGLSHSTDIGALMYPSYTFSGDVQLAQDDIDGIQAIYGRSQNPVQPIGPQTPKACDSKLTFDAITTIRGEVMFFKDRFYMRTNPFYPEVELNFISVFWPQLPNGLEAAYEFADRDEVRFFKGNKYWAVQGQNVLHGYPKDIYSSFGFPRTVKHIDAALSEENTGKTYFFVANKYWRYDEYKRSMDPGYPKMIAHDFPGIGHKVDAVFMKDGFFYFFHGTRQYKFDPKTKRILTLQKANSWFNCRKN
Source text: as §1, §2

MMP-3 [7] = biological target: T1, MMP-3; details: cited from earlier work; for kcat Km: MMP-3, assay at 37° C.; for hydrolyzed by MMP-3: background, literature
Target sequence in this assay (P08254 100-477, species assumed): as the sequence (P08254 100-477) above

MMP-2 [8] = biological target: T3, MMP-2; details: background, literature; cited from earlier work
MMP-1 [9] = biological target: T4, MMP-1; details: background, literature; cited from earlier work
MMP-7 = biological target: T5, MMP-7 (Homo sapiens, UniProt P09237); details: background, literature; cited from earlier work
T5 sequence (P09237 95-267): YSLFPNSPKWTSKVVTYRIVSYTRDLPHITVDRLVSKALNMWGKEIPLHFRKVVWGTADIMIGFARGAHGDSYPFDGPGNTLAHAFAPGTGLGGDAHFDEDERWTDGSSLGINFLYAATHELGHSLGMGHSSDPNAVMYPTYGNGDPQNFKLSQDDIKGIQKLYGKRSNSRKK

Solubility of substrate = assay type: physicochemical; details: 2.5% DMSO in water; read-out: soluble up to a concentration

T2 sequence (P14780 107-707 limits assumed): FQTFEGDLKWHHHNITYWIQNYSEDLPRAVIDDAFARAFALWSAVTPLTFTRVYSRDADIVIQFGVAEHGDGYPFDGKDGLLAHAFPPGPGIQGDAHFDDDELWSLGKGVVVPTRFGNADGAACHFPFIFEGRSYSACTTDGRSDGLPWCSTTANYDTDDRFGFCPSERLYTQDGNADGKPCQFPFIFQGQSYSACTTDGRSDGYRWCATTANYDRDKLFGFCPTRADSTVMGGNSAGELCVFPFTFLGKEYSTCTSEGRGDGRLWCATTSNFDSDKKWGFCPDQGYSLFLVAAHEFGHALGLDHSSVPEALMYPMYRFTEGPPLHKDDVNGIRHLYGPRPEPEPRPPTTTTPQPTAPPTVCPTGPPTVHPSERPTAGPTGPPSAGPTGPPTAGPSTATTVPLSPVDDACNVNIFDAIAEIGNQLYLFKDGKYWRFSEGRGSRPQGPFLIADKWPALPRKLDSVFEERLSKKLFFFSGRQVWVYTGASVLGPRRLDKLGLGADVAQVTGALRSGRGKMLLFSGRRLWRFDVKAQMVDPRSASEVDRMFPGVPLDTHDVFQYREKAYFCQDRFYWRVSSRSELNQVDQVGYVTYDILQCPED

Molecule | kcat /Km (MMP-3 [1]; MMP-3, 37° C.) | site of hydrolysis by MMP-3 (MMP-3 [2]) | hydrolysis by MMP-9 (MMP-9 [3]) | site of hydrolysis by MMP-9 (MMP-9 [4]) | site of hydrolysis by MMP-2 (MMP-2 [5]) | site of hydrolysis by MMP-1 (MMP-1 [6]) | kcat Km (MMP-3 [7]) | hydrolyzed by MMP-3 (MMP-3 [7]) | hydrolyzed by MMP-2 (MMP-2 [8]) | hydrolyzed by MMP-1 (MMP-1 [9]) | hydrolyzed by MMP-7 (MMP-7) | also measured
CCC[C@H](NC(=O)[C@H](C)NC(=O)[C@H](Cc1ccc(O)cc1)NC(=O)[C@@H]1CCCN1C(=O)[C@H](CCCCN)NC(=O)[C@@H]1CCCN1C(=O)[C@H](CCCNC(=N)N)NC(=O)Cc1cc(=O)oc2cc(OC)ccc12)C(=O)N[C@@H](Cc1c[nH]c2ccccc12)C(=O)N[C@@H](CCSC)C(=O)N[C@@H](CCCCNc1ccc([N+](=O)[O-])cc1[N+](=O)[O-])C(N)=O [NFF-2, Mca-Arg-Pro-Lys-Pro-Tyr-Ala-Nva-Trp-Met-Lys(Dnp)-NH2] (Mca-RPKPYA[Nva]WMK(Dnp)-NH2) | 59,400 S^-1 M^-1 | Ala--Nva bond | most rapidly hydrolyzed substrate for MMP-9 reported to date | Ala--Nva bond | Ala--Nva bond | Ala--Nva bond |  |  |  |  |  | hydrolyzed more rapidly than NFF-1 by MMP-3 (MMP-3 [1]; rate relative to NFF-1): 6 times; hydrolyzed more rapidly by MMP-3 than MMP-1 (MMP-3 [1]; selectivity MMP-3 over MMP-1): 60 times; hydrolyzed more rapidly than NFF-1 by MMP-9 (MMP-9 [3]; rate relative to NFF-1): 14 times; hydrolyzed more rapidly than NFF-1 by MMP-2 (MMP-2 [5]; rate relative to NFF-1): 5 times; MMP-1 activity reduced compared to NFF-1 (MMP-1 [6]; relative to NFF-1): ~ 50%
Mca--Pro--Leu--Gly"--"Leu--Dpa--Ala--Arg--NH2 |  |  |  |  |  |  | 23,000 S^-1 M^-1 | hydrolyzed | hydrolyzed | hydrolyzed | hydrolyzed | 
COc1ccc2c(CC(=O)N3CCC[C@H]3C(=O)N[C@@H](CCCCN)C(=O)N3CCC[C@H]3C(=O)N[C@@H](CCC(N)=O)C(=O)N[C@@H](CCC(N)=O)C(=O)N[C@@H](Cc3ccccc3)C(=O)N[C@@H](Cc3ccccc3)C(=O)NCC(=O)N[C@@H](CC(C)C)C(=O)N[C@@H](CCCCNc3ccc([N+](=O)[O-])cc3[N+](=O)[O-])C(=O)NCC(=O)O)cc(=O)oc2c1 [NFF-1, Mca-Pro-Lys-Pro-Gln-Gln-Phe-Phe-Gly-Leu-Lys(Dnp)-Gly] (Mca-PKPQQFFGLK(Dnp)G-OH) | 10,900 S^-1 M^-1 | Gln--Phe bond |  | Gly--Leu bond | Gln--Phe bond | Gln--Phe and Gly--Leu bonds |  |  |  |  |  | hydrolysis by MMP-3 compared with MMP-2 (MMP-3 [1]; MMP-3 and MMP-2): equally well; less activity of MMP-9 than MMP-3 towards the substrate (MMP-9 [3]; MMP-9 compared with MMP-3): 60%; ratio of hydrolysis at the Gln-Phe and Gly-Leu bonds by MMP-1 (MMP-1 [6]; Edman degradation analysis after 36-72 hour treatment): 3.2; less activity of MMP-1 than MMP-3 towards the substrate (MMP-1 [6]; MMP-1 compared with MMP-3): 75%
Dnp-Pro-Leu-Gly-Leu-Trp-Ala-D-Arg-NH2 (Dnp-PLGLWA[dR]-NH2; SMILES CC(C)C[C@H](NC(=O)CNC(=O)[C@H](CC(C)C)NC(=O)[C@@H]1CCCN1c1ccc([N+](=O)[O-])cc1[N+](=O)[O-])C(=O)N[C@@H](Cc1c[nH]c2ccccc12)C(=O)N[C@@H](C)C(=O)N[C@H](CCCNC(=N)N)C(N)=O) [literature fluorogenic MMP substrate] |  |  |  |  |  |  | 2,200 S^-1 M^-1 | hydrolyzed | hydrolyzed | hydrolyzed | hydrolyzed | 
CCC[C@H](NC(=O)[C@H](CCC(=O)O)NC(=O)[C@@H](NC(=O)[C@@H]1CCCN1C(=O)[C@H](CCCCN)NC(=O)[C@@H]1CCCN1C(=O)[C@H](CCCNC(=N)N)NC(=O)Cc1cc(=O)oc2cc(OC)ccc12)C(C)C)C(=O)N[C@@H](Cc1c[nH]c2ccccc12)C(=O)N[C@@H](CCCNC(=N)N)C(=O)N[C@@H](CCCCNc1ccc([N+](=O)[O-])cc1[N+](=O)[O-])C(N)=O [NFF-3, Mca-Arg-Pro-Lys-Pro-Val-Glu-Nva-Trp-Arg-Lys(Dnp)-NH2] (Mca-RPKPVE[Nva]WRK(Dnp)-NH2) | 218,000 S^-1 M^-1 | Glu--Nva bond | very slowly hydrolyzed | multiple sites |  |  |  |  |  |  |  | kcat /Km (MMP-3 [1]; MMP-3, 25° C.): 65,700 S^-1 M^-1; hydrolysis by MMP-3 (MMP-3 [1]; comparison of synthetic substrates): most rapidly hydrolyzed fluorogenic MMP-3 substrate yet described; hydrolyzed faster than NFF-2 by MMP-3 (MMP-3 [1]; rate relative to NFF-2): 3.7 times; solubility (Solubility of substrate): ≥ 250 µM; hydrolysis by MMP-2 (MMP-2 [5]): not hydrolyzed; hydrolysis by MMP-1 (MMP-1 [6]): not hydrolyzed
